Experimental findings from the NIST ThermoML archive (doi:10.1016/j.jct.2012.01.004) are described below.

As usually defined, the mass density is the mass of a sample divided by its volume.

Several values for one entry are separate records, joined by “and”; a condition that tells them apart may be missing. Equal values may be shown once. Numbers after ± are expanded uncertainties.

Data set [1] can be described thus: activity coefficient (dimensionless); of the first substance listed, at infinite dilution; xn = mol fraction of the nth substance listed. To be noted: Gas, Chromatography, x1 = 0.
For data set [2] the following is noted: 323.15 K; 101.33 kPa; Liquid; Vibrating tube method.

On to `C=CCCCCCCCC` [1-decene] + CCCCCCCCCCCCCC[P+](CCCCCC)(CCCCCC)CCCCCC.F[P-](F)(F)(F)(F)F, for which the activity coefficient was 2.81 and 2.79 in data set [1] (313.15 K); 2.29 and 2.28 in data set [1] (333.15 K); 1.85 and 1.83 in data set [1] (353.15 K); 1.74 and 1.75 in data set [1] (363.15 K).

On to `C#CCCCCCCCC` [1-decyne] + CCCCCCCCCCCCCC[P+](CCCCCC)(CCCCCC)CCCCCC.F[P-](F)(F)(F)(F)F, for which the activity coefficient was 2.76 and 2.84 in data set [1] (313.15 K); 2.49 and 2.32 in data set [1] (333.15 K); 1.83 and 1.85 in data set [1] (353.15 K); 1.74 and 1.72 in data set [1] (363.15 K).

As to `C=CCCCCC` [1-heptene] + CCCCCCCCCCCCCC[P+](CCCCCC)(CCCCCC)CCCCCC.F[P-](F)(F)(F)(F)F, the activity coefficient was 1.86 and 1.9 in data set [1] (313.15 K); 1.58 and 1.59 in data set [1] (333.15 K); 1.32 and 1.36 in data set [1] (353.15 K); 1.27 and 1.3 in data set [1] (363.15 K).

As for `C#CCCCCC` [1-heptyne] + CCCCCCCCCCCCCC[P+](CCCCCC)(CCCCCC)CCCCCC.F[P-](F)(F)(F)(F)F, the activity coefficient in data set [1] (313.15 K) is 1.96 and 1.8; in data set [1] (333.15 K), 1.59 and 1.61; in data set [1] (353.15 K) it was 1.36 and 1.32; in data set [1] (363.15 K), 1.3 and 1.27.

For the compound `C#CCCCC` [1-hexyne] + CCCCCCCCCCCCCC[P+](CCCCCC)(CCCCCC)CCCCCC.F[P-](F)(F)(F)(F)F, the activity coefficient in data set [1] (313.15 K) was 1.66 and 1.71; in data set [1] (333.15 K), 1.42 and 1.43; in data set [1] (353.15 K), 1.16 and 1.24; in data set [1] (363.15 K), 1.16 and 1.14.

On to `C=CCCCCCCC` [1-nonene] + CCCCCCCCCCCCCC[P+](CCCCCC)(CCCCCC)CCCCCC.F[P-](F)(F)(F)(F)F, for which the activity coefficient in data set [1] (313.15 K) was 2.4 and 2.5; in data set [1] (333.15 K), 2.01 and 1.98; in data set [1] (353.15 K), 1.62 and 1.63; in data set [1] (363.15 K), 1.54 and 1.55.

For the compound `C#CCCCCCCC` [1-nonyne] + CCCCCCCCCCCCCC[P+](CCCCCC)(CCCCCC)CCCCCC.F[P-](F)(F)(F)(F)F, the activity coefficient in data set [1] (313.15 K) was 2.5 and 2.4; in data set [1] (333.15 K) it was 1.96 and 2.02; in data set [1] (353.15 K) it was 1.65 and 1.59; in data set [1] (363.15 K), 1.56 and 1.52.

On to `C#CCCCCCC` [1-octyne] + CCCCCCCCCCCCCC[P+](CCCCCC)(CCCCCC)CCCCCC.F[P-](F)(F)(F)(F)F, for which the activity coefficient in data set [1] (313.15 K) is 2.19 and 2.03; in data set [1] (333.15 K), 1.79 and 1.75; in data set [1] (353.15 K), 1.44 and 1.56; in data set [1] (363.15 K) it was 1.41 and 1.46.

Regarding `C=CCCC` [1-pentene] + CCCCCCCCCCCCCC[P+](CCCCCC)(CCCCCC)CCCCCC.F[P-](F)(F)(F)(F)F, the activity coefficient in data set [1] (313.15 K) is 1.42 and 1.54; in data set [1] (333.15 K), 1.24 and 1.37; in data set [1] (353.15 K), 1.07 and 1.13; in data set [1] (363.15 K), 1.05 and 1.07.

Take `C#CCCC` [1-pentyne] + CCCCCCCCCCCCCC[P+](CCCCCC)(CCCCCC)CCCCCC.F[P-](F)(F)(F)(F)F: the activity coefficient in data set [1] (313.15 K) was 1.52 and 1.44; in data set [1] (333.15 K), 1.28 and 1.27; in data set [1] (353.15 K), 1.05 and 1.15; in data set [1] (363.15 K), 1.03 and 1.09.

As to `CC(C)=O` [acetone] + CCCCCCCCCCCCCC[P+](CCCCCC)(CCCCCC)CCCCCC.F[P-](F)(F)(F)(F)F, the activity coefficient in data set [1] (313.15 K) was 0.648 and 0.694; in data set [1] (333.15 K), 0.517 and 0.507; in data set [1] (353.15 K) it was 0.388 and 0.404; in data set [1] (363.15 K) it was 0.371 and 0.381.

Consider `c1ccccc1` [benzene] + CCCCCCCCCCCCCC[P+](CCCCCC)(CCCCCC)CCCCCC.F[P-](F)(F)(F)(F)F, for which the activity coefficient is 0.659 and 0.705 in data set [1] (313.15 K); 0.543 and 0.553 in data set [1] (333.15 K); 0.438 and 0.448 in data set [1] (353.15 K); 0.415 and 0.419 in data set [1] (363.15 K).

For `CCC(C)=O` [butanone] + CCCCCCCCCCCCCC[P+](CCCCCC)(CCCCCC)CCCCCC.F[P-](F)(F)(F)(F)F, the activity coefficient was 0.735 and 0.677 in data set [1] (313.15 K); 0.542 and 0.524 in data set [1] (333.15 K); 0.41 and 0.396 in data set [1] (353.15 K); 0.373 and 0.375 in data set [1] (363.15 K).

`C1CCCCCC1` [cycloheptane] + CCCCCCCCCCCCCC[P+](CCCCCC)(CCCCCC)CCCCCC.F[P-](F)(F)(F)(F)F: the activity coefficient in data set [1] (313.15 K) is 1.57 and 1.6; in data set [1] (333.15 K) it was 1.3 and 1.33; in data set [1] (353.15 K), 1.08 and 1.1; in data set [1] (363.15 K), 1.03 and 1.05.

Turning to `C1CCCCC1` [cyclohexane] + CCCCCCCCCCCCCC[P+](CCCCCC)(CCCCCC)CCCCCC.F[P-](F)(F)(F)(F)F, the activity coefficient is 1.46 and 1.48 in data set [1] (313.15 K); 1.23 and 1.21 in data set [1] (333.15 K); 1.05 and 0.969 in data set [1] (353.15 K); 0.991 and 0.951 in data set [1] (363.15 K).

Take `C1CCCCCCCC1` [cyclononane] + CCCCCCCCCCCCCC[P+](CCCCCC)(CCCCCC)CCCCCC.F[P-](F)(F)(F)(F)F: the activity coefficient in data set [1] (313.15 K) was 1.88 and 1.89; in data set [1] (333.15 K), 1.57 and 1.6; in data set [1] (353.15 K), 1.32 and 1.33; in data set [1] (363.15 K), 1.23 and 1.3.

Turning to `C1CCCCCCC1` [cyclooctane] + CCCCCCCCCCCCCC[P+](CCCCCC)(CCCCCC)CCCCCC.F[P-](F)(F)(F)(F)F, the activity coefficient in data set [1] (313.15 K) was 1.64 and 1.8; in data set [1] (333.15 K), 1.4 and 1.44; in data set [1] (353.15 K) it was 1.17 and 1.2; in data set [1] (363.15 K), 1.11 and 1.14.

As to `C1CCCC1` [cyclopentane] + CCCCCCCCCCCCCC[P+](CCCCCC)(CCCCCC)CCCCCC.F[P-](F)(F)(F)(F)F, the activity coefficient is 1.35 and 1.34 in data set [1] (313.15 K); 1.08 and 1.14 in data set [1] (333.15 K); 0.901 and 0.941 in data set [1] (353.15 K); 0.883 and 0.871 in data set [1] (363.15 K).

`CCCCCCCCCC` [decane] + CCCCCCCCCCCCCC[P+](CCCCCC)(CCCCCC)CCCCCC.F[P-](F)(F)(F)(F)F: the activity coefficient in data set [1] (313.15 K) is 3.28 and 3.32; in data set [1] (333.15 K), 2.62 and 2.9; in data set [1] (353.15 K), 2.29 and 2.31; in data set [1] (363.15 K) it was 2.19 and 2.24.

Take `CCO` [ethanol] + CCCCCCCCCCCCCC[P+](CCCCCC)(CCCCCC)CCCCCC.F[P-](F)(F)(F)(F)F: the activity coefficient is 2.21 and 2.31 in data set [1] (313.15 K); 1.51 and 1.49 in data set [1] (333.15 K); 0.989 and 1.01 in data set [1] (353.15 K); 0.893 and 0.911 in data set [1] (363.15 K).

Consider `CCc1ccccc1` [ethylbenzene] + CCCCCCCCCCCCCC[P+](CCCCCC)(CCCCCC)CCCCCC.F[P-](F)(F)(F)(F)F, for which the activity coefficient was 0.961 and 1 in data set [1] (313.15 K); 0.783 and 0.835 in data set [1] (333.15 K); 0.63 and 0.694 in data set [1] (353.15 K); 0.626 and 0.642 in data set [1] (363.15 K).

As to `CCCCCCC` [heptane] + CCCCCCCCCCCCCC[P+](CCCCCC)(CCCCCC)CCCCCC.F[P-](F)(F)(F)(F)F, the activity coefficient was 2.25 and 2.19 in data set [1] (313.15 K); 1.81 and 2 in data set [1] (333.15 K); 1.65 and 1.67 in data set [1] (353.15 K); 1.55 and 1.65 in data set [1] (363.15 K).

In the case of `C=CCCCC` [hex-1-ene] + CCCCCCCCCCCCCC[P+](CCCCCC)(CCCCCC)CCCCCC.F[P-](F)(F)(F)(F)F, the activity coefficient is 1.67 and 1.7 in data set [1] (313.15 K); 1.41 and 1.44 in data set [1] (333.15 K); 1.14 and 1.26 in data set [1] (353.15 K); 1.13 and 1.17 in data set [1] (363.15 K).

Consider `CCCCCC` [hexane] + CCCCCCCCCCCCCC[P+](CCCCCC)(CCCCCC)CCCCCC.F[P-](F)(F)(F)(F)F, for which the activity coefficient in data set [1] (313.15 K) is 1.96 and 2.07; in data set [1] (333.15 K), 1.69 and 1.79; in data set [1] (353.15 K) it was 1.48 and 1.5; in data set [1] (363.15 K), 1.43 and 1.47.

Turning to `CO` [methanol] + CCCCCCCCCCCCCC[P+](CCCCCC)(CCCCCC)CCCCCC.F[P-](F)(F)(F)(F)F, the activity coefficient in data set [1] (313.15 K) was 2.12 and 2.14; in data set [1] (333.15 K), 1.41 and 1.44; in data set [1] (353.15 K), 0.938 and 0.984; in data set [1] (363.15 K), 0.855 and 0.881.

As for `CCCCCCCCC` [nonane] + CCCCCCCCCCCCCC[P+](CCCCCC)(CCCCCC)CCCCCC.F[P-](F)(F)(F)(F)F, the activity coefficient was 2.77 and 3.04 in data set [1] (313.15 K); 2.43 and 2.47 in data set [1] (333.15 K); 2.09 and 2.05 in data set [1] (353.15 K); 1.98 and 2 in data set [1] (363.15 K).

Turning to `C=CCCCCCC` [oct-1-ene] + CCCCCCCCCCCCCC[P+](CCCCCC)(CCCCCC)CCCCCC.F[P-](F)(F)(F)(F)F, the activity coefficient in data set [1] (313.15 K) was 2.02 and 2.2; in data set [1] (333.15 K), 1.75 and 1.79; in data set [1] (353.15 K), 1.51 and 1.48; in data set [1] (363.15 K) it was 1.44 and 1.43.

Turning to `CCCCCCCC` [octane] + CCCCCCCCCCCCCC[P+](CCCCCC)(CCCCCC)CCCCCC.F[P-](F)(F)(F)(F)F, the activity coefficient in data set [1] (313.15 K) is 2.53 and 2.49; in data set [1] (333.15 K), 2.12 and 2.18; in data set [1] (353.15 K) it was 1.87 and 1.83; in data set [1] (363.15 K) it was 1.81 and 1.74.

Regarding `CCCCC` [pentane] + CCCCCCCCCCCCCC[P+](CCCCCC)(CCCCCC)CCCCCC.F[P-](F)(F)(F)(F)F, the activity coefficient in data set [1] (313.15 K) is 1.77 and 1.92; in data set [1] (333.15 K), 1.52 and 1.55; in data set [1] (353.15 K), 1.27 and 1.29; in data set [1] (363.15 K), 1.19 and 1.25.

As for `CCCc1ccccc1` [propylbenzene] + CCCCCCCCCCCCCC[P+](CCCCCC)(CCCCCC)CCCCCC.F[P-](F)(F)(F)(F)F, the activity coefficient in data set [1] (313.15 K) is 1.14 and 1.1; in data set [1] (333.15 K) it was 0.939 and 0.949; in data set [1] (353.15 K) it was 0.799 and 0.779; in data set [1] (363.15 K), 0.777 and 0.735.

Turning to `Cc1ccccc1` [toluene] + CCCCCCCCCCCCCC[P+](CCCCCC)(CCCCCC)CCCCCC.F[P-](F)(F)(F)(F)F, the activity coefficient is 0.772 and 0.814 in data set [1] (313.15 K); 0.671 and 0.639 in data set [1] (333.15 K); 0.535 and 0.541 in data set [1] (353.15 K); 0.506 and 0.516 in data set [1] (363.15 K).

As for `CCCCCCCCCCCCCC[P+](CCCCCC)(CCCCCC)CCCCCC.F[P-](F)(F)(F)(F)F` [trihexyl(tetradecyl)phosphonium hexafluorophosphate(V)], the mass density in data set [2] is reported as 987.15 ± 1.1 kg/m3.
